Experimental findings from US8138215B2, “Hepatitis C virus inhibitors” (Bristol-Myers Squibb Company, priority 2009, dated 2012) are described below.

SMILES strings stand for the structures. Like-named read-outs stand apart in the source and are kept apart here.

The subject of this experiment is HCV 1b genotype. As to the kind of experiment: HCV Replicon assay, 1b genotype. It is filed as cell-based. The following applies: Hepatitis C virus, HCV 1b genotype replicon. On the procedure: An HCV Replicon assay was utilized in the present disclosure, and was prepared, conducted and validated as described in commonly owned PCT/US2006/022197 and in O'Boyle et. al. Antimicrob Agents Chemother. 2005 April; 49(4):1346-53. Assay methods incorporating luciferase reporters have also been used as described (Apath.com).
HCV-neo replicon cells and replicon cells containing mutations in the NS5A region were used to test the currently described family of compounds. The compounds were determined to have more than 10-fold less inhibitory activity on cells containing mutations than wild-type cells. Thus, the compounds of the present disclosure can be effective in inhibiting the function of the HCV NS5A protein and are understood to be as effective in combinations as previously described in application PCT/US2006/022197 and commonly owned WO/04014852. Further, the compounds of the present disclosure can be effective against the HCV 1b genotype. It should also be understood that the compounds of the present disclosure can inhibit multiple genotypes of HCV. […] In one embodiment, compounds of the present disclosure are active against the 1a, 1b, 2a, 2b, 3a, 4a, and 5a genotypes. EC50 values against HCV 1b are as follows: A=5 pM to 5 nM.

Setting [1] is: read-out: Range (EC50 values against HCV 1b).
[2] abbreviates: read-out: 1b EC50 (Effective 50% inhibitory concentration).

With `O=C(N[C@@H](C(=O)N1CCC[C@H]1c1nc(-c2ccc(-c3ccc(-c4c[nH]c([C@@H]5CCCN5C(=O)[C@H](NC(=O)OC5CCC5)c5ccccc5)n4)cc3)cc2)c[nH]1)c1ccccc1)OC1CCC1` [Example CQ-1, Cyclobutyl ((1R)-2-((2S)-2-(4-(4′-(2-((2S)-1-((2R)-2-(((cyclobutyloxy)carbonyl)amino)-2-phenylacetyl)-2-pyrrolidinyl)-1H-imidazol-5-yl)-4-biphenylyl)-1H-imidazol-2-yl)-1-pyrrolidinyl)-2-oxo-1-phenylethyl)carbamate], the EC50 under setting [1] lay within 5 to 5000 pM. For the compound `O=C(N[C@@H](C(=O)N1CCC[C@H]1c1nc(-c2ccc(-c3ccc(-c4c[nH]c([C@@H]5CCCN5C(=O)[C@H](NC(=O)OC5CCCC5)c5ccccc5)n4)cc3)cc2)c[nH]1)c1ccccc1)OC1CCCC1` [Example CQ-2, Cyclopentyl ((1R)-2-((2S)-2-(4-(4′-(2-((2S)-1-((2R)-2-(((cyclopentyloxy)carbonyl)amino)-2-phenylacetyl)-2-pyrrolidinyl)-1H-imidazol-5-yl)-4-biphenylyl)-1H-imidazol-2-yl)-1-pyrrolidinyl)-2-oxo-1-phenylethyl)carbamate], the EC50 was 12 pM under setting [2] and 5 to 5000 pM under setting [1].

Turning to `O=C(N[C@@H](C(=O)N1CCC[C@H]1c1nc(-c2ccc(-c3ccc(-c4cnc([C@@H]5CCCN5C(=O)[C@H](NC(=O)OC5CC5)c5ccccc5)[nH]4)cc3)cc2)c[nH]1)c1ccccc1)OC1CC1` [Example CQ-3, Cyclopropyl ((1R)-2-((2S)-2-(4-(4′-(2-((2S)-1-((2R)-2-(((cyclopropyloxy)carbonyl)amino)-2-phenylacetyl)-2-pyrrolidinyl)-1H-imidazol-5-yl)-4-biphenylyl)-1H-imidazol-2-yl)-1-pyrrolidinyl)-2-oxo-1-phenylethyl)carbamate], the EC50 under setting [1] is 5 to 5000 pM.

As to `O=C(N[C@@H](C(=O)N1CCC[C@H]1c1nc(-c2ccc(-c3ccc(-c4cnc([C@@H]5CCCN5C(=O)[C@H](NC(=O)OC5CCCCC5)c5ccccc5)[nH]4)cc3)cc2)c[nH]1)c1ccccc1)OC1CCCCC1` [Example CQ-4, Cyclohexyl ((1R)-2-((2S)-2-(4-(4′-(2-((2S)-1-((2R)-2-(((cyclohexyloxy)carbonyl)amino)-2-phenylacetyl)-2-pyrrolidinyl)-1H-imidazol-5-yl)-4-biphenylyl)-1H-imidazol-2-yl)-1-pyrrolidinyl)-2-oxo-1-phenylethyl)carbamate], the EC50 under setting [1] fell in the range of 5 to 5000 pM. `O=C(N[C@@H](C(=O)N1[C@@H]2C[C@@H]2C[C@H]1c1nc(-c2ccc(-c3ccc(-c4c[nH]c([C@@H]5C[C@H]6C[C@H]6N5C(=O)[C@H](NC(=O)OC5CCC5)c5ccccc5)n4)cc3)cc2)c[nH]1)c1ccccc1)OC1CCC1` [Example CQ-5, Cyclobutyl ((1R)-2-((1R,3S,5R)-3-(4-(4′-(2-((1R,3S,5R)-2-((2R)-2-(((cyclobutyloxy)carbonyl)amino)-2-phenylacetyl)-2-azabicyclo[3.1.0]hex-3-yl)-1H-imidazol-5-yl)-4-biphenylyl)-1H-imidazol-2-yl)-2-azabicyclo[3.1.0]hex-2-yl)-2-oxo-1-phenylethyl)carbamate]: the EC50 under setting [1] lay in the range of 5 to 5000 pM. As for `O=C(N[C@@H](C(=O)N1[C@@H]2C[C@@H]2C[C@H]1c1nc(-c2ccc(-c3ccc(-c4c[nH]c([C@@H]5C[C@H]6C[C@H]6N5C(=O)[C@H](NC(=O)OC5CCCC5)c5ccccc5)n4)cc3)cc2)c[nH]1)c1ccccc1)OC1CCCC1` [Example CQ-6, Cyclopentyl ((1R)-2-((1R,3S,5R)-3-(4-(4′-(2-((1R,3S,5R)-2-((2R)-2-(((cyclopentyloxy)carbonyl)amino)-2-phenylacetyl)-2-azabicyclo[3.1.0]hex-3-yl)-1H-imidazol-5-yl)-4-biphenylyl)-1H-imidazol-2-yl)-2-azabicyclo[3.1.0]hex-2-yl)-2-oxo-1-phenylethyl)carbamate], under setting [1], the EC50 lay in the range of 5 to 5000 pM. Take `O=C(N[C@@H](C(=O)N1[C@@H]2C[C@@H]2C[C@H]1c1nc(-c2ccc(-c3ccc(-c4cnc([C@@H]5C[C@H]6C[C@H]6N5C(=O)[C@H](NC(=O)OC5CC5)c5ccccc5)[nH]4)cc3)cc2)c[nH]1)c1ccccc1)OC1CC1` [Example CQ-7, Cyclopropyl ((1R)-2-((1R,3S,5R)-3-(4-(4′-(2-((1R,3S,5R)-2-((2R)-2-(((cyclopropyloxy)carbonyl)amino)-2-phenylacetyl)-2-azabicyclo[3.1.0]hex-3-yl)-1H-imidazol-5-yl)-4-biphenylyl)-1H-imidazol-2-yl)-2-azabicyclo[3.1.0]hex-2-yl)-2-oxo-1-phenylethyl)carbamate]: the EC50 by setting is: under setting [2], 6.1 pM; under setting [1], 5 to 5000 pM.

For `O=C(N[C@@H](C(=O)N1[C@@H]2C[C@@H]2C[C@H]1c1nc(-c2ccc(-c3ccc(-c4cnc([C@@H]5C[C@H]6C[C@H]6N5C(=O)[C@H](NC(=O)OC5CCCCC5)c5ccccc5)[nH]4)cc3)cc2)c[nH]1)c1ccccc1)OC1CCCCC1` [Example CQ-8, Cyclohexyl ((1R)-2-((1R,3S,5R)-3-(4-(4′-(2-((1R,3S,5R)-2-((2R)-2-(((cyclohexyloxy)carbonyl)amino)-2-phenylacetyl)-2-azabicyclo[3.1.0]hex-3-yl)-1H-imidazol-5-yl)-4-biphenylyl)-1H-imidazol-2-yl)-2-azabicyclo[3.1.0]hex-2-yl)-2-oxo-1-phenylethyl)carbamate], the EC50 under setting [1] was in the range of 5 to 5000 pM.
